IC50 data for 12 molecules are collected here from patent US10793564B2, “Amino acid compounds and methods of use” (Pliant Therapeutics, Inc., priority 2018, dated 2020).

recombinant human integrin αVβ6, sequence (P06756 31-992): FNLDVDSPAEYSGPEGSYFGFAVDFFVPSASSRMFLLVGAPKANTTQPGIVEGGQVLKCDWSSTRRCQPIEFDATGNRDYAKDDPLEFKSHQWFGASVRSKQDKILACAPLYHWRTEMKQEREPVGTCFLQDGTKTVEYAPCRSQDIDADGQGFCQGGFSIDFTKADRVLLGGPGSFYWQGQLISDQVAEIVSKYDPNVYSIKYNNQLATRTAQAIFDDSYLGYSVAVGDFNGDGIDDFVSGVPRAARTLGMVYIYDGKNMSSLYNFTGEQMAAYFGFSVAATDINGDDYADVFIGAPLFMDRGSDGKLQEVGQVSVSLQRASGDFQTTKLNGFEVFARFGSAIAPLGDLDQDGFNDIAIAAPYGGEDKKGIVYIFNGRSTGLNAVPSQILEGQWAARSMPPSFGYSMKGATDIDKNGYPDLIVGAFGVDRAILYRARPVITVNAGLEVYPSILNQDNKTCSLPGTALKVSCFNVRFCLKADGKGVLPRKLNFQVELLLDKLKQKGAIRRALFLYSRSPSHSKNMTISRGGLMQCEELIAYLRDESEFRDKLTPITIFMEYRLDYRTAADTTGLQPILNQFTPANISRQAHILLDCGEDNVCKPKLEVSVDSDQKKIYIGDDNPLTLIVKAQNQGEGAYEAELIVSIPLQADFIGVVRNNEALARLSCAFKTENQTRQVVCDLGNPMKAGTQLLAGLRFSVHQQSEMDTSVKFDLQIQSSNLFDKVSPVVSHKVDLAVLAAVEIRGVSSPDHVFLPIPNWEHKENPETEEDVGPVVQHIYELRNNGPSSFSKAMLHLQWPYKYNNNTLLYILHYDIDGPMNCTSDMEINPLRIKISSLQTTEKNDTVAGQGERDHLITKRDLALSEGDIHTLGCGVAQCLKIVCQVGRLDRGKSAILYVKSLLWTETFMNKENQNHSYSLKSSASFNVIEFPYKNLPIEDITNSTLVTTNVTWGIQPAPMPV
recombinant human integrin αVβ6, sequence (P18564 22-707): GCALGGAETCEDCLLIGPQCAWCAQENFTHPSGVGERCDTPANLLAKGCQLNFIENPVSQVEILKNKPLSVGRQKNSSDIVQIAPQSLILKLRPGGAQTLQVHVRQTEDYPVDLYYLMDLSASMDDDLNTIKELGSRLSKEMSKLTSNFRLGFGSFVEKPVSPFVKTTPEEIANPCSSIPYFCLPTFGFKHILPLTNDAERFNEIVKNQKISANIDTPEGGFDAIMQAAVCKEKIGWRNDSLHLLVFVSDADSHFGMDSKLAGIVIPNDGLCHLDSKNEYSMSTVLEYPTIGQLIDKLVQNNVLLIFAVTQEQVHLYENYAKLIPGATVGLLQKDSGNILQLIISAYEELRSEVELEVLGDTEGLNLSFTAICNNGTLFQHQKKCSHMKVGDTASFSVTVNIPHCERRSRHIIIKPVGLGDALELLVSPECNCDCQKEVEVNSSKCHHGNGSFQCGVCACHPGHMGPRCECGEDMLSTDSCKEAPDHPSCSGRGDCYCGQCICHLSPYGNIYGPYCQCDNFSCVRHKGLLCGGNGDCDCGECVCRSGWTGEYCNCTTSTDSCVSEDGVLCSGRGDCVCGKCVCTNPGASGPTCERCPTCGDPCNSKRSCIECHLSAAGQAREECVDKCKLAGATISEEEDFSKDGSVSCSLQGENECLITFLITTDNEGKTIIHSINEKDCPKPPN

The experiment addresses recombinant human integrin αVβ6 (Homo sapiens (Human), UniProt P06756+P18564). The experiment in a line: Solid phase integrin αVβ6 binding assay. Particulars: inhibition of recombinant TGFβ1 LAP binding to coated integrin, IC50 presented in four ranges, read-out: αvβ6 Inhibition IC50 (nM) - range. The gist of the method:
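Plates coated with recombinant human αVβ6 (2 μg/mL) and blocked; compounds competed with TGFβ1 LAP (0.67 μg/mL) in Mn2+ (0.5 mM)/BSA/sucrose TBS for 2 h at 25° C. Bound LAP detected by biotin anti-LAP and peroxidase-streptavidin; IC50 by four-parameter logistic fit.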
In the case of `Cn1ncc2c(N[C@@H](CCN(CCCCc3ccc4c(n3)NCCC4)CCOc3ccc(F)cc3)C(=O)O)ncnc21` [Compound 123, (S)-4-((2-(4-fluorophenoxy)ethyl) (4-(5,6,7,8-tetrahydro-1,8-naphthyridin-2-yl)butyl)amino)-2-((1-methyl-1H-pyrazolo[3,4-d]pyrimidin-4-yl)amino) butanoic Acid], the IC50 (commonly the concentration that inhibits the measured activity by half) is below 50 nM. With `N#Cc1cnc(N[C@@H](CCN(CCCCc2ccc3c(n2)NCCC3)CC(F)F)C(=O)O)nc1` [Compound 118, (S)-2-((5-cyanopyrimidin-2-yl)amino)-4-((2,2-difluoroethyl) (4-(5,6,7,8-tetrahydro-1,8-naphthyridin-2-yl)butyl)amino) butanoic Acid], the IC50 is above 1000 nM. Next, `O=C(O)[C@H](CCN(CCCCc1ccc2c(n1)NCCC2)CCOc1ccc(F)cc1)Nc1ncnc2[nH]ncc12` [Compound 143, (S)-2-((1H-pyrazolo[3,4-d]pyrimidin-4-yl)amino)-4-((2-(4-fluorophenoxy)ethyl) (4-(5,6,7,8-tetrahydro-1,8-naphthyridin-2-yl)butyl)amino) butanoic Acid]: 50 to 250 nM. Next, `O=C(O)[C@H](CCN(CCCCc1ccc2c(n1)NCCC2)CC(F)F)Nc1ncncc1-c1ccccc1` [Compound 119, (S)-4-((2,2-difluoroethyl) (4-(5,6,7,8-tetrahydro-1,8-naphthyridin-2-yl)butyl)amino)-2-((5-phenylpyrimidin-4-yl)amino) butanoic Acid]: above 1000 nM; `CO[C@H](C)CN(CCCCc1ccc2c(n1)NCCC2)CC[C@H](Nc1ncnc2cn[nH]c12)C(=O)O` [Compound 79, (S)-2-((1H-pyrazolo[4,3-d]pyrimidin-7-yl)amino)-4-(((R)-2-methoxypropyl) (4-(5,6,7,8-tetrahydro-1,8-naphthyridin-2-yl)butyl)amino) butanoic Acid]: below 50 nM. Consider `COCCN(CCCCc1ccc2c(n1)NCCC2)CC[C@H](Nc1ncnc2c(C(F)(F)F)cccc12)C(=O)O` [Compound 15, (S)-4-((2-methoxyethyl) (4-(5,6,7,8-tetrahydro-1,8-naphthyridin-2-yl)butyl)amino)-2-((8-(trifluoromethyl)quinazolin-4-yl)amino) butanoic Acid], for which the IC50 is below 50 nM. `COCCN(CCCCc1ccc2c(n1)NCCC2)CC[C@H](Nc1ccnc(C(F)(F)F)n1)C(=O)O` [Compound 24, (S)-4-((2-methoxyethyl) (4-(5,6,7,8-tetrahydro-1,8-naphthyridin-2-yl)butyl)amino)-2-((2-(trifluoromethyl)pyrimidin-4-yl)amino) butanoic Acid]: the IC50 was below 50 nM. Next, `O=C(O)[C@H](CCN(CCCCc1ccc2c(n1)NCCC2)CCOCC(F)F)Nc1ncnc2ccccc12` [Compound 50, (S)-4-((2-(2,2-difluoroethoxy)ethyl) (4-(5,6,7,8-tetrahydro-1,8-naphthyridin-2-yl)butyl)amino)-2-(quinazolin-4-ylamino) butanoic Acid]: below 50 nM; `COCCN(CCCCc1ccc2c(n1)NCCC2)CC[C@H](Nc1cc(C(F)(F)F)nc(C)n1)C(=O)O` [Compound 22, (S)-4-((2-methoxyethyl) (4-(5,6,7,8-tetrahydro-1,8-naphthyridin-2-yl)butyl)amino)-2-((2-methyl-6-(trifluoromethyl)pyrimidin-4-yl)amino) butanoic Acid]: below 50 nM.

With `CO[C@H](C)CN(CCCCc1ccc2c(n1)NCCC2)CC[C@H](Nc1ncnc2[nH]ncc12)C(=O)O` [Compound 71, (S)-2-((1H-pyrazolo[3,4-d]pyrimidin-4-yl)amino)-4-(((R)-2-methoxypropyl) (4-(5,6,7,8-tetrahydro-1,8-naphthyridin-2-yl)butyl)amino) butanoic Acid], the 50% inhibitory concentration (IC50) was below 50 nM. Next, `CS(=O)(=O)CCN(CCCCc1ccc2c(n1)NCCC2)CC[C@H](Nc1ncnc2ccccc12)C(=O)O` [Compound 27, (S)-4-((2-(methylsulfonyl)ethyl) (4-(5,6,7,8-tetrahydro-1,8-naphthyridin-2-yl)butyl)amino)-2-(quinazolin-4-ylamino) butanoic Acid]: below 50 nM; `CS(=O)(=O)CCN(CCCCc1ccc2c(n1)NCCC2)CC[C@H](Nc1ncc(C(F)(F)F)cn1)C(=O)O` [Compound 102, (S)-4-((2-(methylsulfonyl)ethyl) (4-(5,6,7,8-tetrahydro-1,8-naphthyridin-2-yl)butyl)amino)-2-((5-(trifluoromethyl)pyrimidin-2-yl)amino) butanoic Acid]: above 1000 nM.
